Read-outs that look alike come from different tables or passages of the source.
What was measured:
Assay in all cases: MIC of compounds alone, broth microdilution
Type in all cases: cell-based
S. marcescens = conditions: Serratia marcescens, SMA UFR30, beta-lactamases OXA-405
Procedure: (§1) Method 2: MIC of Compounds and Synergy with Ceftazidime Against Bacterial Isolates (Table 2 and 3)
(§2) Compounds of the present invention were assessed against genotyped bacterial strains alone or in combination with the β-lactam ceftazidime. In the assays, MICs of said compounds, or of ceftazidime at fixed concentrations of said compounds were determined by the broth microdilution method according to the Clinical Laboratory Standards Institute (CLSI—M7-A7). Briefly, compounds alone according to the invention were prepared in DMSO and spotted (2 μL each) on sterile polystyrene plates (Corning, 3788). Compounds and ceftazidime dilutions were prepared in DMSO and spotted (1 μL each) on sterile polystyrene plates (Corning, 3788). Log phase bacterial suspensions were adjusted to a final density of 5×10^5 cfu/mL in cation-adjusted Mueller-Hinton broth (Beckton-Dickinson) and added to each well (98 μL). Microplates were incubated for 16-20 h at 35° C. in ambient air. The MIC of the compounds was defined as the lowest concentration of said compounds that prevented bacterial growth as read by visual inspection. The MIC of ceftazidime at each compound concentration was defined as the lowest concentration of ceftazidime that prevented bacterial growth as read by visual inspection.

P. mirabilis = conditions: Proteus mirabilis, PMI UFR82, beta-lactamases CMY-2
Procedure: as §1, §2

M. morganii = conditions: Morganella morganii, MMO 200321, beta-lactamases TEM-1, CTX-M-15 OXA-1
Procedure: as §1, §2

C. murliniae = system: C. murliniae
Procedure: as §1, §2

E. coli = conditions: Escherichia coli
Procedure: as §1, §2

K. pneumoniae = conditions: Klebsiella pneumoniae
Procedure: as §1, §2

C. freundii = conditions: Citrobacter freundii
Procedure: as §1, §2

E. aerogenes = conditions: Klebsiella aerogenes
Procedure: as §1, §2

K. oxytoca = conditions: Klebsiella oxytoca
Procedure: as §1, §2

E. cloacae = conditions: Enterobacter cloacae
Procedure: as §1, §2

P. aeruginosa = conditions: Pseudomonas aeruginosa
Procedure: as §1, §2

Measured: MIC

CC(C)(O/N=C(\C(=O)N[C@@H]1C(=O)N2C(C(=O)[O-])=C(C[n+]3ccccc3)CS[C@H]12)c1csc(N)n1)C(=O)O [CAZ, ceftazidime, reference compound]
0.25 µg/mL: K. pneumoniae; alone, KPN LIB, beta-lactamases SHV-11 OXA-48, read-out: MIC
2 µg/mL: E. coli; ECO 200159, beta-lactamases TEM-1, CTX-M-14, read-out: MIC | E. coli; ECO UFR45, beta-lactamases TEM-1 CMY-4 OXA-1 OXA-48 VIM-1, read-out: MIC | K. pneumoniae; alone, KPN UFR22_O, beta-lactamases TEM-1, SHV-1 OXA-48, read-out: MIC | E. cloacae; ECL UFR12, beta-lactamases CTX-M-9 OXA-48, read-out: MIC
0.5 µg/mL: K. pneumoniae; alone, KPN UFR80, beta-lactamases SHV-11 DHA-1 OXA-1, read-out: MIC
128 µg/mL: E. coli; ECO 190317, beta-lactamases TEM-1, SHV-12, CTX-M-15 OXA-1 | E. coli; ECO 260096, beta-lactamases CTX-M-132 | E. coli; ECO 260508, beta-lactamases TEM-1, CTX-M-15 OXA-1 | E. coli; ECO UFR19, beta-lactamases CTX-M-15 CMY-2 OXA-1 OXA-204 | E. coli; ECO UFR61O, beta-lactamases TEM-1 KPC-2 | E. coli; ECO UFR74, beta-lactamases SHV-1 DHA-1 | K. pneumoniae; alone, KPN 110376, beta-lactamases TEM-1, SHV-1, CTX-M-15 OXA-1 OXA-48 | K. pneumoniae; alone, KPN 160143, beta-lactamases TEM-1, SHV-1, CTX-M-15 KPC-2 OXA-1 | K. pneumoniae; alone, KPN 200047, beta-lactamases TEM-1, SHV-32, CTX-M-15 OXA-1 | K. pneumoniae; alone, KPN 260376, beta-lactamases SHV-1, SHV-49 OXA-1 | K. pneumoniae; alone, KPN 270077, beta-lactamases TEM-1, SHV-1, CTX-M-15 | K. pneumoniae; alone, KPN UFR25, beta-lactamases TEM-1, SHV-11, CTX-M-15 OXA-162 | K. pneumoniae; alone, KPN UFR28, beta-lactamases TEM-1, SHV-1, CTX-M-15 OXA-1 OXA-232 | K. pneumoniae; alone, KPN UFR65, beta-lactamases TEM-1, SHV-11 KPC-2 | K. pneumoniae; alone, KPN UFR81, beta-lactamases TEM-1, SHV-1 DHA-1 OXA-48 | E. aerogenes | K. oxytoca | E. cloacae; ECL 2185D, beta-lactamases OXA-163 | E. cloacae; ECL 190408, beta-lactamases TEM-1, CTX-M-15 OXA-1 | E. cloacae; ECL P99, beta-lactamases AmpC | P. aeruginosa
4 µg/mL: P. mirabilis | E. coli; ECO 200259, beta-lactamases CTX-M-14, read-out: MIC
> 128 µg/mL: C. murliniae | E. coli; ECO UFR17, beta-lactamases TEM-1, CTX-M-15 CMY-2 OXA-1 OXA-181 | E. coli; ECO UFR18, beta-lactamases CTX-M-15 OXA-204 | E. coli; ECO UFR32, beta-lactamases TEM-1, VEB-1 OXA-10 | E. coli; ECO UFR39, beta-lactamases CTX-M-15 NDM-1 | E. coli; ECO UFR41, beta-lactamases TEM-1, CTX-M-15 CMY-2 OXA-1 NDM-4 | E. coli; ECO UFR52, beta-lactamases TEM-1, SHV-12 IMP-8 | K. pneumoniae; alone, KPN 131119, beta-lactamases TEM-1, SHV-11, CTX-M-15 OXA-1 OXA-48 | K. pneumoniae; alone, KPN 190128, beta-lactamases TEM-1, SHV-32, CTX-M-15 OXA-1 | K. pneumoniae; alone, KPN 190270, beta-lactamases TEM-1, SHV-76, CTX-M-15 OXA-1 | K. pneumoniae; alone, KPN 190425, beta-lactamases TEM-1, SHV-1, CTX-M-15 OXA-1 | K. pneumoniae; alone, KPN 260251, beta-lactamases TEM-1, SHV-11, SHV-12, CTX-M-15 KPC-2 | K. pneumoniae; alone, KPN 260252, beta-lactamases TEM-1, SHV-11 KPC-3 | K. pneumoniae; alone, KPN 6122012, beta-lactamases SHV-1 NDM-1 | K. pneumoniae; alone, KPN ARA, beta-lactamases TEM-1, SHV-11, CTX-M-15 OXA-1 OXA-48 | K. pneumoniae; alone, KPN UFR24, beta-lactamases TEM-1, SHV-2, SHV-11 OXA-1 OXA-48 OXA-47 | K. pneumoniae; alone, KPN UFR27, beta-lactamases TEM-1, SHV-28, CTX-M-15 OXA-204 | K. pneumoniae; alone, KPN UFR42, beta-lactamases SHV-2, CTX-M-15 OXA-1 OXA-181 NDM-1 | K. pneumoniae; alone, KPN UFR43, beta-lactamases SHV-11, CTX-M-15 CMY-2 OXA-1 NDM-1 | K. pneumoniae; alone, KPN UFR53, beta-lactamases TEM-1 IMP-1 | K. pneumoniae; alone, KPN UFR66, beta-lactamases TEM-1, SHV-11, CTX-M-15 KPC-2 | K. pneumoniae; alone, KPN UFR68, beta-lactamases TEM-1, SHV-11, CTX-M-15 KPC-3 | C. freundii | E. cloacae; ECL 190310, beta-lactamases AmpC | E. cloacae; ECL 200138, beta-lactamases AmpC | E. cloacae; ECL 200322, beta-lactamases TEM-1, CTX-M-15 OXA-1 | E. cloacae; ECL 260033, beta-lactamases AmpC | E. cloacae; ECL 260253, beta-lactamases TEM-1 KPC-3 | E. cloacae; ECL 260323, beta-lactamases AmpC | E. cloacae; ECL HAN, beta-lactamases OXA-35 | E. cloacae; ECL NEM146383, beta-lactamases AmpC | E. cloacae; ECL UFR13, beta-lactamases TEM-1, SHV-12, CTX-M-9 OXA-48 | E. cloacae; ECL UFR14, beta-lactamases TEM-1, SHV-12, CTX-M-15 DHA-1 OXA-1 OXA-48 | E. cloacae; ECL UFR38, beta-lactamases CTX-M-15 NDM-1 | E. cloacae; ECL UFR51, beta-lactamases SHV-12 IMP-8 | E. cloacae; ECL UFR60, beta-lactamases TEM-1, CTX-M-15 KPC-2 | E. cloacae; ECL UFR70, beta-lactamases TEM-1, CTX-M-15 CMY-2 OXA-1 | E. cloacae; ECL UFR84, beta-lactamases TEM-1 AmpC OXA-1 | E. cloacae; ECL UFR85, beta-lactamases TEM-1, CTX-M-15 AmpC
32 µg/mL: K. pneumoniae; alone, KPN 200327, beta-lactamases TEM-1, SHV-1, CTX-M-15 OXA-1, read-out: MIC | K. pneumoniae; alone, KPN UFR79, beta-lactamases DHA-1 OXA-1, read-out: MIC
64 µg/mL: E. coli; ECO 180070, beta-lactamases TEM-1, CTX-M-15, read-out: MIC | E. coli; ECO UFR16, beta-lactamases TEM-1, CTX-M-15 OXA-1 OXA-48, read-out: MIC | K. pneumoniae; alone, KPN 190551, beta-lactamases TEM-1, SHV-1, CTX-M-15 OXA-1, read-out: MIC | K. pneumoniae; alone, KPN 700603, beta-lactamases SHV-18 OXA-2, read-out: MIC | K. pneumoniae; alone, KPN UFR77, beta-lactamases CMY-2, read-out: MIC | C. freundii; alone, CFR UFR10, beta-lactamases OXA-48, read-out: MIC | E. cloacae; ECL 260508, beta-lactamases TEM-1, CTX-M-15, read-out: MIC
256 µg/mL: K. pneumoniae; BAA1898, alone, KPN BAA-1898, beta-lactamases TEM-1, SHV-11, SHV-12 KPC-2 | K. pneumoniae; alone, KPN 6299, beta-lactamases TEM-1, SHV-11 OXA-163 | P. aeruginosa; CIP107051
8 µg/mL: E. coli; ECO 190314, beta-lactamases CTX-M-1, read-out: MIC | E. coli; ECO 190549, beta-lactamases CTX-M-1, read-out: MIC | C. freundii; alone, CFR UFR11, beta-lactamases TEM-1 OXA-1 OXA-48, read-out: MIC
16 µg/mL: S. marcescens | M. morganii | E. coli; ECO 190457, beta-lactamases CTX-M-15 OXA-1, read-out: MIC | E. coli; ECO 200344, beta-lactamases CTX-M-1, read-out: MIC | E. coli; ECO 260304, beta-lactamases CTX-M-15, read-out: MIC | E. coli; ECO UFR62, beta-lactamases TEM-1, CTX-M-9 KPC-2, read-out: MIC

Reference: patent US10842779B2, “Heterocyclic compounds and their use in preventing or treating bacterial infections” (priority 2015, dated 2020)
